Results reported in patent publication US20250099517A1, “Use of Lactobacillus reuteri Y7 strain for prevention or treatment of ocular diseases” (Taipei Medical University, priority 2023, published 2025).

Tests used:
Type in all cases: in vivo, C57BL/6 mice
[1] = water intakes of mice during the experiment; details: LU, lutein 6.15 mg/kg bw oral daily, blue light, Mean±S.E.M., n=6
Procedure: In the present invention, six-week-old male C57BL/6 mice were placed in a breeding cage in which the following feeding conditions were kept: temperature, 22±2° C., humidity, 55±5%, and the light-dark cycle of 12-hour light and 12-hour dark. The mice were fed with fodders at the adaptive phase for one week; general solid fodders for test animals were administered to mice of the control group and mice during the adaptive phase. The initial day was defined as Day 0 when the adaptive phase for the mice was over. From the next week, the mice were interfered with samples under test and exposed to blue light. During the experiments, the mice were monitored for weights as well as water intakes and checked for any physiological change. The data for experiments through electroretinography (ERG), fndus photography (FP), fundus fluorescein angiograph (FFA), spectral-domain optical coherence tomography (SD-OCT) and intraocular pressure (IOP) were collected at Day 0, Day 21 and Day 35, as shown in FIG. 1 for the experimental process. The C57BL/6 mice, which weighed between 23 and 25 g, were divided into seven groups randomly. In each group, the six mice induced by blue light successfully were incorporated in experiments. The samples dissolved in deuterium-depleted water (DDW) were fed to mice through oral tubes once a day. The groups were named and introduced as follows: • (1) Solvent not classified group (NC): The mice were fed with 0.2 ml deuterium-depleted water (DDW) through tubes; • (2) Negative control group (Blue light (BL)): The mice were fed with 0.2 ml deuterium-depleted water (DDW) through tubes and exposed to blue light; • (3) Low-dosage Y7 probiotics group […]): The mice were fed with low-dosage Y7 probiotics (probiotic counts of 1.0×10^8 CFU/ml dissolved in 0.2 ml DDW per day) and exposed to blue light; • (4) High-dosage Y7 probiotics group […]): The mice were fed with high-dosage Y7 probiotics (probiotic counts of 1.0×10^9 CFU/ml dissolved in 0.2 ml DDW per day) and exposed to blue light; • (5) Positive control group (lutein (LU)): The mice were fed with lutein and exposed to blue light. The recommended human dosage of lutein is 30 mg. The mouse cage (48×25×20 cm) placed inside a stainless ventilated box was equipped with blue light boards as blue light sources around and above. In the experiment of animals exposed to blue light, six-week-old mice staying in the mouse cage were fed with drinking water as well as fodders and exposed to 400 Lux blue light illumination under the light-dark cycle of 12-hour light and 12-hour dark. The experiment was aimed at causing mice' late dry macular disease induced by chronic light injuries for simulating a human being's macular disease after long-term exposure to short-wavelength blue light from 3C products in daily life. All data written as the form of mean±standard error of the mean (S.E.M.) were used in the statistical analysis through the one-way ANOVA and the Newman-Keuls test; p<0.05 denoted statistical difference. In the experiment, the software for the statistical analysis was Graph pad Prism (v9.2.0). The data such as food intake, water intake, body weight, organ weight and other clinical examination data were analyzed with the one-way ANOVA.

[2] = system: Occludin, Claudin-1, ZO-1 gene expression; assay: q-PCR of tight junction gene expression in buccal mucosas; details: Y7H high-dosage group, p<0.05
Text: The C57BL/6 mice, which weighed between 23 and 25 g, were divided into seven groups randomly. In each group, the six mice induced by blue light successfully were incorporated in experiments. The samples dissolved in deuterium-depleted water (DDW) were fed to mice through oral tubes once a day. […] Then, the real-time quantitative polymerase chain reaction was enabled to detect gene expressions related to inflammatory hormones and apoptosis such as TNF-α, IL-1B, IL-6, Bax, Bcl-2, Caspase1, Caspase3 and NLRP3 for comparisons with the endogenous level of β-actin, GAPDH or 18S rRNA. […] The gene expressions related to tight junctions of mice' eyes, buccal mucosas and colons after induction of blue light were analyzed through q-PCR and shown in FIG. 10a, FIG. 10d and FIG. 10g for Occludin, FIG. 10b, FIG. 10e and FIG. 10h for Claudin-1 and FIG. 10c, FIG. 10f and FIG. 10i for ZO-1, respectively.

[3] = system: Occludin, Claudin-1, ZO-1 gene expression; assay: q-PCR of tight junction gene expression in colons; details: for gene expressions of ZO-1: p<0.05
Procedure: The C57BL/6 mice, which weighed between 23 and 25 g, were divided into seven groups randomly. In each group, the six mice induced by blue light successfully were incorporated in experiments. The samples dissolved in deuterium-depleted water (DDW) were fed to mice through oral tubes once a day. The groups were named and introduced as follows: • (1) Solvent not classified group (NC): The mice were fed with 0.2 ml deuterium-depleted water (DDW) through tubes; • (2) Negative control group (Blue light (BL)): The mice were fed with 0.2 ml deuterium-depleted water (DDW) through tubes and exposed to blue light; • (3) Low-dosage Y7 probiotics group […]): The mice were fed with low-dosage Y7 probiotics (probiotic counts of 1.0×10^8 CFU/ml dissolved in 0.2 ml DDW per day) and exposed to blue light; • (4) High-dosage Y7 probiotics group […]): The mice were fed with high-dosage Y7 probiotics (probiotic counts of 1.0×10^9 CFU/ml dissolved in 0.2 ml DDW per day) and exposed to blue light; • (5) Positive control group (lutein (LU)): The mice were fed with lutein and exposed to blue light. The recommended human dosage of lutein is 30 mg. The mouse cage (48×25×20 cm) placed inside a stainless ventilated box was equipped with blue light boards as blue light sources around and above. In the experiment of animals exposed to blue light, six-week-old mice staying in the mouse cage were fed with drinking water as well as fodders and exposed to 400 Lux blue light illumination under the light-dark cycle of 12-hour light and 12-hour dark. The experiment was aimed at causing mice' late dry macular disease induced by chronic light injuries for simulating a human being's macular disease after long-term exposure to short-wavelength blue light from 3C products in daily life. The eyes of a mouse sacrificed were collected for the following purposes. RNAs extracted with Trizol were reverse-transcribed to cDNAs. Then, the real-time quantitative polymerase chain reaction was enabled to detect gene expressions related to inflammatory hormones and apoptosis such as TNF-α, IL-1B, IL-6, Bax, Bcl-2, Caspase1, Caspase3 and NLRP3 for comparisons with the endogenous level of β-actin, GAPDH or 18S rRNA. [table] The gene expressions related to tight junctions of mice' eyes, buccal mucosas and colons after induction of blue light were analyzed through q-PCR and shown in FIG. 10a, FIG. 10d and FIG. 10g for Occludin, FIG. 10b, FIG. 10e and FIG. 10h for Claudin-1 and FIG. 10c, FIG. 10f and FIG. 10i for ZO-1, respectively.

| Compound | water intakes of mice ([1]; Day7) | water intakes of mice ([1]; Day14) | water intakes of mice ([1]; Day21) | water intakes of mice ([1]; Day28) | water intakes of mice ([1]; Day35) | gene expressions of ZO-1 compared with NC, BL or LU groups [2] | gene expressions of Claudin-1 ([3]; Y7H high-dosage group) | gene expressions of Occludin ([3]; Y7H high-dosage group) | gene expressions of ZO-1 ([3]; Y7H high-dosage group) | gene expressions of Claudin-1 ([3]; Y7L low-dosage group) | gene expressions of Occludin ([3]; Y7L low-dosage group) | gene expressions of ZO-1 ([3]; Y7L low-dosage group) |
| --- | --- | --- | --- | --- | --- | --- | --- | --- | --- | --- | --- | --- |
| CC1=C[C@H](O)CC(C)(C)[C@H]1/C=C/C(C)=C/C=C/C(C)=C/C=C/C=C(C)/C=C/C=C(C)/C=C/C1=C(C)C[C@@H](O)CC1(C)C [lutein, reference compound] | 3.69 ± 0.86 | 4.17 ± 1.05 | 4.71 ± 0.42 | 3.65 ± 0.61 | 3.88 ± 0.31 | – | – | – | – | – | – | – |
| Lactobacillus reuteri Y7 [Y7 probiotics] | – | – | – | – | – | increased significantly | ascending trend | ascending trend | increased significantly | ascending trend | ascending trend | increased significantly |
